{"source": "BindingDB's records for doi:10.1016/j.bmcl.2018.01.029", "about": "(Presidio Pharmaceuticals, 2018)", "key": {"[1]": {"experiment": "Inhibition of HCV genotype 1a NS5A polymerase infected in human HuH7 replicon cells by luciferase reporter gene assay"}, "[2]": {"experiment": "Inhibition of HCV genotype 1b NS5B polymerase infected in human HuH7 replicon cells by luciferase reporter gene assay"}, "[3]": {"experiment": "Inhibition of HCV genotype 3a NS5B polymerase infected in human HuH7 replicon cells by luciferase reporter gene assay"}, "[4]": {"experiment": "Inhibition of HCV genotype 4a NS5B polymerase infected in human HuH7 replicon cells by luciferase reporter gene assay"}, "[5]": {"experiment": "Inhibition of HCV genotype 2a NS5B polymerase infected in human HuH7 replicon cells by luciferase reporter gene assay"}, "[6]": {"experiment": "Inhibition of NS5B polymerase in HCV genotype 1b infected human HuH7 replicon cells assessed as reduction in viral RNA level after 3 days by RT-PCR assay"}}, "data": [{"smiles": "CNC(=O)c1c(-c2ccc(F)cc2)oc2cc3c(cc12)C(C)OC(CS(C)(=O)=O)CN3S(C)(=O)=O", "note": "(stereo unspecified)", "values": [{"measurement": "EC50", "setting": "[1]", "result": 9, "unit": "nM"}, {"measurement": "EC50", "setting": "[2]", "result": 7, "unit": "nM"}, {"measurement": "EC50", "setting": "[3]", "result": 17, "unit": "nM"}, {"measurement": "EC50", "setting": "[4]", "result": 17, "unit": "nM"}, {"measurement": "EC50", "setting": "[5]", "result": 64, "unit": "nM"}]}, {"smiles": "CNC(=O)c1c(-c2ccc(F)cc2)oc2cc(N(CCO)S(C)(=O)=O)c(C3CC3)cc12", "note": "[HCV 796]", "values": [{"measurement": "EC50", "setting": "[1]", "result": 24, "unit": "nM"}, {"measurement": "EC50", "setting": "[2]", "result": 12, "unit": "nM"}, {"measurement": "EC50", "setting": "[3]", "result": 19, "unit": "nM"}, {"measurement": "EC50", "setting": "[4]", "result": 21, "unit": "nM"}, {"measurement": "EC50", "setting": "[6]", "result": 9, "unit": "nM"}, {"measurement": "EC50", "setting": "[5]", "result": 72, "unit": "nM"}]}]}
